target: recombinant human TYRO3 (Homo sapiens (Human), UniProt Q06418); assay: TYRO3 enzymatic assay (radiometric [32P]-ATP, Poly(Glu,Tyr) substrate); format: biochemical; settings: recombinant human TYRO3, [32P]-ATP
Procedure: Poly(Glu, Tyr) sodium salt (Glu:Tyr (4:1), quality level 200, molecular weight 5,000-20,000, obtained from Sigma Aldrich, catalogue #P7244, assay concentration 0.20 mg/mL) and recombinant human TYRO3 (obtained from ThermoFisher Scientific, catalogue #PV3828, assay concentration 2 nM) were mixed in assay buffer (20 mM Hepes pH 7.5, 10 mM MgCl2, 1 mM EGTA, 0.02% Brij35, 0.02 mg/ml BSA, 0.1 mM Na3VO4, 2 mM DTT, 1% DMSO, with added MnCl2 at a final concentration of 2 mM). Compounds of interest (in DMSO, serial 3-fold dilution from 10 μM to 0.5 nM) or control (1% DMSO) were dispensed into the kinase reaction mixture by Acoustic technology (Echo550; nanoliter range). After incubation at room temperature for 20 minutes, the kinase reaction was initiated by addition of [^32P]-ATP (Specific activity 10 μCi/μl) and the mixture was incubated at room temperature for 2 hours. The reaction was then stopped by spotting the reaction mixture on strips of phosphocellulose P81 paper. Following washing, the radioactivity of the P81 paper was measured and kinase activity data were expressed as the percent remaining kinase activity in test samples compared to vehicle (dimethyl sulfoxide) reactions. IC50 values and curve fits were obtained using Prism (GraphPad Software).

Chain of recombinant human TYRO3 (Q06418 41-890): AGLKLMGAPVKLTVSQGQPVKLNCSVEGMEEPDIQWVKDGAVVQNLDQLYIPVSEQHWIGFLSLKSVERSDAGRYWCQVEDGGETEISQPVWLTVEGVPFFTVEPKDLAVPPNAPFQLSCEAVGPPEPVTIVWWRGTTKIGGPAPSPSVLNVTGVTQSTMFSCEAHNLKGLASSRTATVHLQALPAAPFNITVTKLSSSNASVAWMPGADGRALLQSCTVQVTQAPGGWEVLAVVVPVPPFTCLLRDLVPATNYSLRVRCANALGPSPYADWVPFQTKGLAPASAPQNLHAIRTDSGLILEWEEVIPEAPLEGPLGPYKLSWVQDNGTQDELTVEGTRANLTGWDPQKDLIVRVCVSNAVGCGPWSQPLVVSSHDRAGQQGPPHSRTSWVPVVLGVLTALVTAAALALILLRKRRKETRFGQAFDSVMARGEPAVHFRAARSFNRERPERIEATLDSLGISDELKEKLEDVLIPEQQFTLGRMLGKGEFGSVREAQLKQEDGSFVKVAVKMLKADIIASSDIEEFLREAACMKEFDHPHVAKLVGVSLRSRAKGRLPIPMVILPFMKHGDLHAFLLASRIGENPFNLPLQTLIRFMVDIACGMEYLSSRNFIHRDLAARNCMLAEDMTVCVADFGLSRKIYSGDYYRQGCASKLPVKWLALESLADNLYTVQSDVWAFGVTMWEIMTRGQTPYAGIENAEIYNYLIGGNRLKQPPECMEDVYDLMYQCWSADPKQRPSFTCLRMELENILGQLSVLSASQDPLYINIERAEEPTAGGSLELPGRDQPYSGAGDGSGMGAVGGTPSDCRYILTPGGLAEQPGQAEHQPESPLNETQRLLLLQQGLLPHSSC

| Compound | IC50 [nM] |
| --- | --- |
| COc1ccc(-c2c[nH]c3ncc(-c4ccc(CN5CCCC(OC)C5)cc4)cc23)cn1 (single isomer, unassigned; enantiomer 1) [compound 38, 5-(4-((3-methoxypiperidin-1-yl)methyl)phenyl)-3-(6-methoxypyridin-3-yl)-1H-pyrrolo[2,3-b]pyridine Enantiomer 1] | 151 to 500 |
| OCc1[nH]c2ncc(-c3ccc(CN4CCCC(O)C4)cc3)cc2c1-c1cccc(F)c1 (single isomer, unassigned; enantiomer 1) [compound 88, 1-(4-(3-(3-fluorophenyl)-2-(hydroxymethyl)-1H-pyrrolo[2,3-b]pyridin-5-yl)benzyl)piperidin-3-ol Enantiomer 1] | 151 to 500 |
| OC1CCCN(Cc2ccc(-c3cnc4[nH]cc(-c5ccc(C(F)(F)F)cc5)c4c3)cc2)C1 (stereo not drawn) [compound 10, 1-(4-(3-(4-(trifluoromethyl)phenyl)-1H-pyrrolo[2,3-b]pyridin-5-yl)benzyl)piperidin-3-ol] | 151 to 500 |
| OC1CCCN(Cc2ccc(-c3cnc4[nH]cc(-c5ccc(F)nc5)c4c3)cc2)C1 (stereo not drawn) [compound 21, 1-(4-(3-(6-fluoropyridin-3-yl)-1H-pyrrolo[2,3-b]pyridin-5-yl)benzyl)piperidin-3-ol] | 51 to 150 |
| OC1CCCN(Cc2ccc(-c3cnc4[nH]cc(-c5cncc(F)c5)c4c3)cc2)C1 (stereo not drawn) [compound 22, 1-(4-(3-(5-fluoropyridin-3-yl)-1H-pyrrolo[2,3-b]pyridin-5-yl)benzyl)piperidin-3-ol] | 51 to 150 |
| OC1CCCN(Cc2ccc(-c3cnc4[nH]cc(-c5ccc(C(F)(F)F)nc5)c4c3)cc2)C1 (stereo not drawn) [compound 24, 1-(4-(3-(6-(trifluoromethyl)pyridin-3-yl)-1H-pyrrolo[2,3-b]pyridin-5-yl)benzyl)piperidin-3-ol] | 51 to 150 |
| COc1ccc(-c2c[nH]c3ncc(-c4ccc(CN5CCC(O)CC5)cc4)cc23)cn1 [compound 28, 1-(4-(3-(6-methoxypyridin-3-yl)-1H-pyrrolo[2,3-b]pyridin-5-yl)benzyl)piperidin-4-ol] | 151 to 500 |
| COc1ccc(-c2c[nH]c3ncc(-c4ccc(CN5CCC(O)C5)cc4)cc23)cn1 (stereo not drawn) [compound 29, 1-(4-(3-(6-methoxypyridin-3-yl)-1H-pyrrolo[2,3-b]pyridin-5-yl)benzyl)pyrrolidin-3-ol] | 51 to 150 |
| COc1ccc(-c2c[nH]c3ncc(-c4ccc(CN5CCCC(C)(O)C5)cc4)cc23)cn1 (stereo not drawn) [compound 30, 1-(4-(3-(6-methoxypyridin-3-yl)-1H-pyrrolo[2,3-b]pyridin-5-yl)benzyl)-3-methylpiperidin-3-ol] | 51 to 150 |
| COc1ccc(-c2c[nH]c3ncc(-c4ccc(CN5CCCC(CO)C5)cc4)cc23)cn1 (stereo not drawn) [compound 32, (1-(4-(3-(6-methoxypyridin-3-yl)-1H-pyrrolo[2,3-b]pyridin-5-yl)benzyl)piperidin-3-yl)methanol] | 51 to 150 |
| COc1ccc(-c2c[nH]c3ncc(-c4ccc(CN5CCC(OC)CC5)cc4)cc23)cn1 [compound 34, 5-(4-((4-methoxypiperidin-1-yl)methyl)phenyl)-3-(6-methoxypyridin-3-yl)-1H-pyrrolo[2,3-b]pyridine] | 51 to 150 |
| COc1ccc(-c2c[nH]c3ncc(-c4ccc(CN5CC(OC)C5)cc4)cc23)cn1 [compound 35, 5-(4-((3-methoxyazetidin-1-yl)methyl)phenyl)-3-(6-methoxypyridin-3-yl)-1H-pyrrolo[2,3-b]pyridine] | 51 to 150 |
| CCOC1CN(Cc2ccc(-c3cnc4[nH]cc(-c5ccc(OC)nc5)c4c3)cc2)C1 [compound 36, 5-(4-((3-ethoxyazetidin-1-yl)methyl)phenyl)-3-(6-methoxypyridin-3-yl)-1H-pyrrolo[2,3-b]pyridine] | 151 to 500 |
| COc1ccc(-c2c[nH]c3ncc(-c4ccc(CN5CCCC(F)C5)cc4)cc23)cn1 (stereo not drawn) [compound 40, 5-(4-((3-fluoropiperidin-1-yl)methyl)phenyl)-3-(6-methoxypyridin-3-yl)-1H-pyrrolo[2,3-b]pyridine] | 151 to 500 |
| COc1ccc(-c2c[nH]c3ncc(-c4ccc(CN5CCC6(CC5)CN(C)C6)cc4)cc23)cn1 [compound 42, 7-(4-(3-(6-methoxypyridin-3-yl)-1H-pyrrolo[2,3-b]pyridin-5-yl)benzyl)-2-methyl-2,7-diazaspiro[3.5]nonane] | 151 to 500 |
| OCc1ccc(-c2c[nH]c3ncc(-c4ccc(CN5CCCC(O)C5)cc4)cc23)cn1 (stereo not drawn) [compound 43, 1-(4-(3-(6-(hydroxymethyl)pyridin-3-yl)-1H-pyrrolo[2,3-b]pyridin-5-yl)benzyl)piperidin-3-ol] | 51 to 150 |
| OC1CCCN(Cc2ccc(-c3cnc4[nH]c(Cl)c(-c5cccc(F)c5)c4c3)cc2)C1 (stereo not drawn) [compound 54, 1-(4-(2-chloro-3-(3-fluorophenyl)-1H-pyrrolo[2,3-b]pyridin-5-yl)benzyl)piperidin-3-ol] | 51 to 150 |
| OC1CCCN(Cc2ccc(-c3cnc4[nH]c(Cl)c(-c5cccc(C(F)F)c5)c4c3)cc2)C1 (stereo not drawn) [compound 55, 1-(4-(2-chloro-3-(3-(difluoromethyl)phenyl)-1H-pyrrolo[2,3-b]pyridin-5-yl)benzyl)piperidin-3-ol] | 151 to 500 |
| COc1ccc(-c2c(C)[nH]c3ncc(-c4ccc(CN5CCCC(O)C5)cc4)cc23)cn1 (stereo not drawn) [compound 62, 1-(4-(3-(6-methoxypyridin-3-yl)-2-methyl-1H-pyrrolo[2,3-b]pyridin-5-yl)benzyl)piperidin-3-ol] | 51 to 150 |
| COCc1[nH]c2ncc(-c3ccc(CN4CCCC(O)C4)cc3)cc2c1-c1ccc(F)nc1 (stereo not drawn) [compound 64, 1-(4-(3-(6-fluoropyridin-3-yl)-2-(methoxymethyl)-1H-pyrrolo[2,3-b]pyridin-5-yl)benzyl)piperidin-3-ol] | 51 to 150 |
| OC1CCCN(Cc2ccc(-c3cnc4[nH]c(C(F)F)c(-c5cccc(F)c5)c4c3)cc2)C1 (stereo not drawn) [compound 68, 1-(4-(2-(difluoromethyl)-3-(3-fluorophenyl)-1H-pyrrolo[2,3-b]pyridin-5-yl)benzyl)piperidin-3-ol] | 51 to 150 |

More lines, now with the values ahead:

| IC50 [nM] | Compound |
| --- | --- |
| < 51 | COc1ccc(-c2c[nH]c3ncc(-c4ccc(CN5CCCC(O)C5)cc4)cc23)cn1 (single isomer, unassigned; enantiomer 1) [compound 26, 1-(4-(3-(6-methoxypyridin-3-yl)-1H-pyrrolo[2,3-b]pyridin-5-yl)benzyl)piperidin-3-ol Enantiomer 1] |
| 51 to 150 | COc1ccc(-c2c[nH]c3ncc(-c4ccc(CN5CCCC(O)C5)cc4)cc23)cn1 (single isomer, unassigned; enantiomer 2) [compound 27, 1-(4-(3-(6-methoxypyridin-3-yl)-1H-pyrrolo[2,3-b]pyridin-5-yl)benzyl)piperidin-3-ol Enantiomer 2] |
| 51 to 150 | OCc1[nH]c2ncc(-c3ccc(CN4CCCC(O)C4)cc3)cc2c1-c1cccc(F)c1 (single isomer, unassigned; enantiomer 2) [compound 89, 1-(4-(3-(3-fluorophenyl)-2-(hydroxymethyl)-1H-pyrrolo[2,3-b]pyridin-5-yl)benzyl)piperidin-3-ol Enantiomer 2] |
| 51 to 150 | Cc1ccc(-c2c[nH]c3ncc(-c4ccc(CN5CCCC(O)C5)cc4)cc23)cc1 (stereo not drawn) [compound 1, 1-(4-(3-(p-tolyl)-1H-pyrrolo[2,3-b]pyridin-5-yl)benzyl)piperidin-3-ol] |
| 51 to 150 | OC1CCCN(Cc2ccc(-c3cnc4[nH]cc(-c5ccc(F)cc5)c4c3)cc2)C1 (stereo not drawn) [compound 3, 1-(4-(3-(4-fluorophenyl)-1H-pyrrolo[2,3-b]pyridin-5-yl)benzyl)piperidin-3-ol] |
| 51 to 150 | CC1(O)CCCN(Cc2ccc(-c3cnc4[nH]cc(-c5cccc(F)c5)c4c3)cc2)C1 (stereo not drawn) [compound 5, 1-(4-(3-(3-fluorophenyl)-1H-pyrrolo[2,3-b]pyridin-5-yl)benzyl)-3-methylpiperidin-3-ol] |
| 51 to 150 | Fc1cccc(-c2c[nH]c3ncc(-c4ccc(CN5C[C@@H]6C[C@H]5CO6)cc4)cc23)c1 [compound 6, (1S,4S)-5-(4-(3-(3-fluorophenyl)-1H-pyrrolo[2,3-b]pyridin-5-yl)benzyl)-2-oxa-5-azabicyclo[2.2.1]heptane] |
| 51 to 150 | OC1CCCN(Cc2ccc(-c3cnc4[nH]cc(-c5ccc(Cl)cc5)c4c3)cc2)C1 (stereo not drawn) [compound 7, 1-(4-(3-(4-chlorophenyl)-1H-pyrrolo[2,3-b]pyridin-5-yl)benzyl)piperidin-3-ol] |
| 51 to 150 | OC1CCCN(Cc2ccc(-c3cnc4[nH]cc(-c5cccc(Cl)c5)c4c3)cc2)C1 (stereo not drawn) [compound 8, 1-(4-(3-(3-chlorophenyl)-1H-pyrrolo[2,3-b]pyridin-5-yl)benzyl)piperidin-3-ol] |
| 51 to 150 | OC1CCCN(Cc2ccc(-c3cnc4[nH]cc(-c5cccc(C(F)(F)F)c5)c4c3)cc2)C1 (stereo not drawn) [compound 11, 1-(4-(3-(3-(trifluoromethyl)phenyl)-1H-pyrrolo[2,3-b]pyridin-5-yl)benzyl)piperidin-3-ol] |
| 51 to 150 | CC(C)Oc1ccc(-c2c[nH]c3ncc(-c4ccc(CN5CCCC(O)C5)cc4)cc23)cc1C#N (stereo not drawn) [compound 19, 5-(5-(4-((3-hydroxypiperidin-1-yl)methyl)phenyl)-1H-pyrrolo[2,3-b]pyridin-3-yl)-2-isopropoxybenzonitrile] |
| 51 to 150 | Cc1ccc(-c2c[nH]c3ncc(-c4ccc(CN5CCCC(O)C5)cc4)cc23)cn1 (stereo not drawn) [compound 20, 1-(4-(3-(6-methylpyridin-3-yl)-1H-pyrrolo[2,3-b]pyridin-5-yl)benzyl)piperidin-3-ol] |

From patent US20240425499A1, “TYRO3 INHIBITORS” (HALIA THERAPEUTICS, INC., priority 2021, published 2024)
